This experiment deals with human NK1 receptor (Homo sapiens, UniProt P25103). As to the kind of experiment: NK1 receptor test by the methods of WO 93/01165 (pages 36 to 39). It counts as binding. On the procedure: The exemplified compounds of this invention were tested by the methods set out at pages 36 to 39 of International Patent Specification No. WO 93/01165.

Counter-ions that a name gives are not always drawn.

human NK1 receptor, sequence (P25103 whole entry): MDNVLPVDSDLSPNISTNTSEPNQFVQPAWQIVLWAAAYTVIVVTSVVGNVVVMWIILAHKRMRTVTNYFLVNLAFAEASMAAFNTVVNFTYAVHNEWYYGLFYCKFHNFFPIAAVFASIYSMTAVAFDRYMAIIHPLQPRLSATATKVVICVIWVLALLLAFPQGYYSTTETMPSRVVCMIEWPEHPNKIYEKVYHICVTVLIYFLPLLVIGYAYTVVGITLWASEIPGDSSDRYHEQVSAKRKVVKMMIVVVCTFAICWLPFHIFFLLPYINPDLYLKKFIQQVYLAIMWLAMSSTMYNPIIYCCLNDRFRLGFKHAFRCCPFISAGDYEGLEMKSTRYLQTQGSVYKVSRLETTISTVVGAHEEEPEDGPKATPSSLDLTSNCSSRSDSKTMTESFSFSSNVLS

`Fc1ccc(C2NCCCC2NCc2cc(-n3nnnc3C(F)(F)F)ccc2OC2CC2)cc1` (racemic) [Example 2, (±)-(2 R3 R 2 S3 S)-N-({2-Cyclopropoxy-5-[5-(trifluoromethyl)tetrazol-1-yl]phenyl}methyl)-2-(4-fluorophenyl)piperidin-3-amine Dihydrochloride]: half-maximal inhibition (IC50) was put at 0.13 nM.

With `FC(F)(F)c1nnnn1-c1ccc(OC2CC2)c(CN[C@H]2CCCN[C@H]2c2ccccc2)c1` [Example 1, (2 S3 S)-N-({2-Cyclopropoxy-5-[5-(trifluoromethyl)tetrazol-1-yl]phenyl}methyl)-2-phenylpiperidin-3-amine Dihydrochloride], 0.08 nM corresponded to half-maximal inhibition (IC50). Compared with the last molecule, the IC50 is about 1.6-fold lower.

What is called IC50 is the point on the concentration scale where inhibition reaches its midpoint. A higher IC50 goes with a need for much substance.

The record behind these values is patent US20020052504A1, “PIPERIDINE DERIVATIVES AND THEIR USE AS TACHYKININ ANTAGONISTS” (priority 1997, published 2002).
